Results as given in patent US20170280720A1, “ARGININE […] INHIBITORS AND USES THEREOF” (EPIZYME, INC., priority 2014, published 2017).

Columns and labels:
Human CARM1 (PRMT4) = target: T1, Human CARM1 (PRMT4) (Homo sapiens, UniProt Q86X55); assay: CARM1 biochemical assay (3H-SAM Flashplate, peptide substrate); settings: read-out: CARM1_ IC50
T1 construct: Flag-CARM1-His; made in house; host or cells: HEK 293F cells (BacMam baculovirus, pFastBacMam)
T1 sequence (Q86X55 2-585 isoform Q86X55-1): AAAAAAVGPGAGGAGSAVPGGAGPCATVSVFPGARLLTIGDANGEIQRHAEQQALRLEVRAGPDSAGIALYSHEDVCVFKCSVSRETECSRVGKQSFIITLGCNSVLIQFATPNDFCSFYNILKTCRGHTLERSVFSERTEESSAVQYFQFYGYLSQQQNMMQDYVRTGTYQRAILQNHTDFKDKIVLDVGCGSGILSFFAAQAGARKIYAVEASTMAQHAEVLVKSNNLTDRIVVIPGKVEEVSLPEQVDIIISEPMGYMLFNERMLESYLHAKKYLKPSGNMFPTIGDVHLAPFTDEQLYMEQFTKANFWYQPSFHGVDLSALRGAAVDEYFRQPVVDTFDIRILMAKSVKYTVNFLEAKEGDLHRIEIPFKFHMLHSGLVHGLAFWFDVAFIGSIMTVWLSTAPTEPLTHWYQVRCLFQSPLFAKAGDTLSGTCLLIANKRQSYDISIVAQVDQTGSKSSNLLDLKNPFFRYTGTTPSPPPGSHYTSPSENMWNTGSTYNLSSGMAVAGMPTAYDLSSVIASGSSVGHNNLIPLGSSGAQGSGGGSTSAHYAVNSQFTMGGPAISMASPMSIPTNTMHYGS
Source text: S-adenosylmethionine (SAM), S-adenosylhomocysteine (SAH), bicine, Tween20, dimethylsulfoxide (DMSO), bovine skin gelatin (BSG), sodium butyrate and Tris(2-carboxyethyl)phosphine hydrochloride solution (TCEP) were purchased from Sigma-Aldrich at the highest level of purity possible. ^3H-SAM was purchase from American Radiolabeled Chemicals with a specific activity of 80 Ci/mmol. 384-well streptavidin Flashplates were purchased from PerkinElmer.
Peptide representative of human histone H3 residues 16-30 was synthesized with an N-terminal linker-affinity tag motif and a C-terminal amide cap by 21st Century Biochemicals. The peptide was purified by high-performance liquid chromatography (HPLC) to greater than 95% purity and confirmed by liquid chromatography mass spectrometry (LC-MS). The sequence was Biot-Ahx-[…]-amide and contained a monomethylated arginine at position 26 (SEQ ID NO.: 14).
Human CARM1 (PRMT4) (NM_199141.1) transcript clone was amplified from an HEK 293 cDNA library, incorporating a flanking 5′ sequence encoding a FLAG tag ([…]) (SEQ ID NO.: 6) fused directly to Ala 2 of CARM1 and 3′ sequence encoding a hexa His sequence ([…]) (SEQ ID NO.: 15) fused directly to Ser 608. The gene sequence encoding isoform1 containing a deletion of amino acids 539-561 was amplified subsequently and subcloned into pFastBacMam (Viva Biotech).
Recombinant baculovirus were generated according to Bac-to-Bac kit instructions (Life Technologies). […] Infections were carried out at 37° C. for 48 hours, harvested by centrifugation, and stored at −80° C. for purification.
Column was washed with 500 mM NaCl in buffer A and Flag-CARM1-His was eluted with 200 ug/ml FLAG peptide in buffer A. Pooled fractions were dialyzed in 20 mM Tris, 150 mM NaCl, 5% glycerol and 1 mM DTT, pH 7.8. The purity of recovered protein was 94.
General Procedure for CARM1 Enzyme Assays on Peptide Substrates.
The assays were all performed in a buffer consisting of 20 mM Bicine (pH=7.6), 1 mM TCEP, 0.005% BSG, and 0.002% Tween 20, prepared on the day of use. Compounds in 100% DMSO (1 ul) were spotted into a polypropylene 384-well V-bottom plates (Greiner) using a Platemate Plus outfitted with a 384-channel head (Thermo Scientific). DMSO (1 ul) was added to Columns 11, 12, 23, 24, rows A-H for the maximum signal control and 1 ul of SAH, a known product and inhibitor of CARM1, was added to columns 11, 12, 23, 24, rows I-P for the minimum signal control. A cocktail (40 ul) containing the CARM1 enzyme was added by Multidrop Combi (Thermo-Fisher). The compounds were allowed to incubate with CARM1 for 30 min at room temperature, then a cocktail (10 ul) containing ^3H-SAM and peptide was added to initiate the reaction (final volume=51 ul). The final concentrations of the components were as follows: CARM1 was 0.25 nM, ^3H-SAM was 30 nM, peptide was 250 nM, SAH in the minimum signal control wells was 1 mM, and the DMSO concentration was 2%. The assays were stopped by the addition of non-radiolabeled SAM (10 ul) to a final concentration of 300 uM, which dilutes the ^3H-SAM to a level where its incorporation into the peptide substrate is no longer detectable. 50 ul of the reaction in the 384-well polypropylene plate was then transferred to a 384-well Flashplate and the biotinylated peptides were allowed to bind to the streptavidin surface for at least 1 hour before being washed once with 0.1% Tween20 in a Biotek ELx405 plate washer. The plates were then read in a PerkinElmer TopCount plate reader to measure the quantity of ^3H-labeled peptide bound to the Flashplate surface, measured as disintegrations per minute (dpm) or alternatively, referred to as counts per minute (cpm).
Where dpm=disintegrations per minute, cmpd=signal in assay well, and min and max are the respective minimum and maximum signal controls.
Where top and bottom are the normally allowed to float, but may be fixed at 100 or 0 respectively in a 3-parameter fit. […]

[1] = tested on: asymmetric di-methyl PABP1 in RKO cells; assay: In Cell Western (ICW) for asymmetric di-methyl PABP1 and DNA content in RKO cells; assay type: cell-based; settings: Homo sapiens, RKO, In Cell Western
Source text: RKO adherent cells were purchased from ATCC (American Type Culture Collection), Manassas, Va., USA. DMEM/Glutamax medium, penicillin-streptomycin, heat inactivated fetal bovine serum, 0.05% trypsin and D-PBS were purchased from Life Technologies, Grand Island, N.Y., USA. Odyssey blocking buffer, 800CW goat anti-rabbit IgG (H+L) antibody, and Licor Odyssey infrared scanner were purchased from Licor Biosciences, Lincoln, Nebr., USA. Mono-methyl arginine antibody was purchased from Cell Signaling Technology, Danvers, Mass., USA. Methanol was purchased from VWR, Franklin, Mass., USA. 10% Tween 20 was purchased from KPL, Inc., Gaithersburg, Md., USA. […] was purchased from Biostatus Limited, Leicestershire, UK. RKO adherent cells were maintained in growth medium (DMEM/Glutamax medium supplemented with 10% v/v heat inactivated fetal bovine serum and 100 units/mL penicillin-streptomycin) and cultured at 37° C. under 5% CO2. Cell Treatment, in Cell Western (ICW) for Detection of Asymmetric Di-Methyl PABP1 and DNA Content. RKO cells were seeded in assay medium at a concentration of 30,000 cells per mL to a poly-D-lysine coated 384 well culture plate (BD Biosciences 356697) with 50 μL per well. Compound (100 nL) from a 96-well source plate was added directly to 384 well cell plate. Plates were incubated at 37° C., 5% CO2 for 48 hours. After two days of incubation, plates were brought to room temperature outside of the incubator for ten minutes and blotted on paper towels to remove cell media. Cells were fixed for 20 minutes at room temperature by adding 50 μl of 8% PFA followed by aspiration of supernatant with the Biotek EL406 plate washer. Cells were then permeabilized by addition of 50 μL of ice cold 100% methanol directly to each well and incubated for 30 min at room temperature. After 30 min, plates were transferred to a Biotek EL406 plate washer and washed 2 times with 100 μL per well of wash buffer (1×PBS). Next 60 μL per well of Odyssey blocking buffer (Odyssey Buffer with 0.1% Tween 20 (v/v)) were added to each plate and incubated 1 hour at room temperature. Blocking buffer was removed and 20 μL per well of primary antibody was added (asymmetric-methyl PABP1) diluted 1:400 in Odyssey buffer with 0.1% Tween 20 (v/v)) and plates were incubated overnight (16 hours) at 4° C. Plates were washed 5 times with 100 μL per well of wash buffer. Next 20 μL per well of secondary antibody was added (1:800 800CW goat anti-rabbit IgG (H+L) antibody, 1:2000 DRAQS in Odyssey buffer with 0.1% Tween 20 (v/v)) and incubated for 1 hour at room temperature. The plates were washed 5 times with 100 μL per well wash buffer then 2 times with 100 μL per well of water. Plates were allowed to dry at room temperature then imaged on the Licor Odyssey machine which measures integrated intensity at 700 nm and 800 nm wavelengths. Both 700 and 800 channels were scanned. Calculations: First, the ratio for each well was determined by: Each plate included fourteen control wells of DMSO only treatment (minimum inhibition) as well as fourteen control wells for maximum inhibition treated with 20 μM of a reference compound. The average of the ratio values for each control type was calculated and used to determine the percent activation for each test well in the plate. Reference compound was serially diluted three-fold in DMSO for a total of nine test concentrations, beginning at 20 μM. Percent inhibition was determined and IC50 curves were generated using triplicate wells per concentration of compound.

SMILES	IC50 (Human CARM1 (PRMT4)) [nM]	IC50 [1] [nM]
CNCCN(C)Cc1cccc(-c2cc(C(=O)NCc3cnc4ccccn34)c3cnn(C(C)C)c3n2)c1 [Compound 176]	7.29	865
CNCCN(C)Cc1cccc(-c2nc(NC3CCOCC3)c3cnn(C4CC4)c3n2)c1 [Compound 179]	8.88	4870
CNCCN(C)Cc1cccc(-c2cc(C(=O)NCc3cn4cccc(C)c4n3)c3cnn(C(C)C)c3n2)c1 [Compound 181]	9.63	733
Cc1c(CNC(=O)c2cc(-c3cccc(CN(C)CCN)c3)nc3c2cnn3C(C)C)cnn1C [Compound 183]	11.6	1970
CC(C)n1ncc2c(C(=O)NCc3cncn3C)cc(-c3cccc(CN(C)CCN)c3)nc21 [Compound 185]	11.7	10800
CNCCN(C)Cc1cccc(-c2cc(OC3CCOCC3)c3cnn(C(C)C)c3n2)c1 [Compound 187]	12	6090
CNCCN(C)Cc1cccc(-c2cc(C3=CCOCC3)c3cnn(C(C)C)c3n2)c1 [Compound 188]	12.3	8310
CC(C)n1ncc2c(C(=O)NCc3nccs3)cc(-c3cccc(CN(C)CCN)c3)nc21 [Compound 189]	12.4	1890
CNCCN(C)Cc1cccc(-c2cc(NC(=O)OC)c3cnn(C(C)C)c3n2)c1 [Compound 190]	12.5	2460
CC(C)n1ncc2c(C(=O)NCc3cnc4ccccn34)cc(-c3cccc(CN(C)CCN)c3)nc21 [Compound 194]	13.6	1200
CC(C)n1ncc2c(C(=O)NCc3cccnc3)cc(-c3cccc(CN(C)CCN)c3)nc21 [Compound 195]	13.9	1660
CC(C)n1ncc2c(C(=O)NCc3cccc4ccnn34)cc(-c3cccc(CN(C)CCN)c3)nc21 [Compound 197]	15	1660
CC(C)n1ncc2c(-c3ccco3)cc(-c3cccc(CN(C)CCN)c3)nc21 [Compound 198]	15.1	20000
CNCCN(C)Cc1cccc(-c2cc(C(=O)NCc3cccnc3)c3cnn(C(C)C)c3n2)c1 [Compound 199]	15.9	2180
CC(C)n1ncc2c(C(=O)N3CCC3)cc(-c3cccc(CN(C)CCN)c3)nc21 [Compound 201]	18.2	3050
CC(C)n1ncc2c(C(=O)NC3CCOC3)cc(-c3cccc(CN(C)CCN)c3)nc21 (stereo not drawn) [Compound 202]	19.1	1990

The next lines start with the values.

IC50 (Human CARM1 (PRMT4)) [nM]	IC50 [1] [nM]	SMILES
19.6	5750	CCOC(=O)Nc1cc(-c2cccc(CN(C)CCNC)c2)nc2c1cnn2C(C)C [Compound 205]
19.7	20000	CC(C)n1ncc2c(C(=O)NCc3cnc[nH]3)cc(-c3cccc(CN(C)CCN)c3)nc21 [Compound 206]
20.6	1640	CNCCN(C)Cc1cccc(-c2cc(C(=O)NCc3nccs3)c3cnn(C(C)C)c3n2)c1 [Compound 207]
20.7	5540	CN(CCN)Cc1cccc(-c2cc(C(=O)NCC3CCOCC3)cc(N(C)CC3CC3)c2)c1 [Compound 208]
21.7	20000	CNCCN(C)Cc1cccc(-c2cc(-c3ccco3)c3cnn(C(C)C)c3n2)c1 [Compound 209]
22.4	2000	CC(C)n1ncc2c(C(=O)NC3CC3)cc(-c3cccc(CN(C)CCN)c3)nc21 [Compound 210]
23.9	3250	CCN(Cc1cccnc1)C(=O)c1cc(-c2cccc(CN(C)CCN)c2)nc2c1cnn2C(C)C [Compound 211]
24.9	1800	CNCCN(C)Cc1cccc(-c2cc(C(=O)NCc3nccn3C)c3cnn(C(C)C)c3n2)c1 [Compound 212]
26.6	20000	CNCCN(C)Cc1cccc(-c2cc(N3CCCC3)c3cnn(C(C)C)c3n2)c1 [Compound 214]
29.1	2240	CC(C)n1ncc2c(C(=O)NCc3nccn3C)cc(-c3cccc(CN(C)CCN)c3)nc21 [Compound 215]
30	5690	CN(CCN)Cc1cccc(-c2cc(C(=O)NC3CCOCC3)cc(N(C)CC3CC3)c2)c1 [Compound 217]
